The values below come from US9540361B2, “N-substituted azetidine derivatives” (Merck Sharp & Dohme B.V., priority 2010, dated 2017).

Each structure is given as a SMILES string.

By AUC is commonly meant concentration integrated over time. A word on the Cmax: it is the highest concentration seen after dosing.

Series [1] deals with T1, human estrogen receptor α (hERα) (Homo sapiens, UniProt P03372).
T1 sequence (P03372 1-595): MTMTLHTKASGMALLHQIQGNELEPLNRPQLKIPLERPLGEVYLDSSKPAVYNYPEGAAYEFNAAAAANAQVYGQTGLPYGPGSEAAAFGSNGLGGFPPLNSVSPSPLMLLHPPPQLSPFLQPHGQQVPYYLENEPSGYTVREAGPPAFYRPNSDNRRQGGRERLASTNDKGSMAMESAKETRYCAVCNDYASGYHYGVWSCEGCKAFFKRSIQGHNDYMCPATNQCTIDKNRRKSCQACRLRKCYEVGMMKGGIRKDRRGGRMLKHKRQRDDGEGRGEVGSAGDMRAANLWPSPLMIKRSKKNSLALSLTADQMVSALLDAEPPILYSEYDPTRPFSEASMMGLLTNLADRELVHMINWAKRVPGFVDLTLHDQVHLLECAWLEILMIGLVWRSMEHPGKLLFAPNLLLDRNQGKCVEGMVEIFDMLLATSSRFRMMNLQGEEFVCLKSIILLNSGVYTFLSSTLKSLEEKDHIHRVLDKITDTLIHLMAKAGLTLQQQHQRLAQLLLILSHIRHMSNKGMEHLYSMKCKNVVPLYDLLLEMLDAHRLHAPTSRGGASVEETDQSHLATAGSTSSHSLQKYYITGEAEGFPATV
The series can be described thus: antagonistic activity in CHO cells co-transfected with hERα, rat oxytocin promoter and luciferase reporter gene. The format is cell-based. The settings on record: antagonism of 17β-estradiol-induced transactivation, CHO-hERα-RO-LUC; read-out: ERα pIC50 (converted). The procedure, abridged: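 Recombinant CHO cells stably carrying hERα, rat oxytocin promoter and luciferase reporter, with receptor activated by 17β-estradiol. Antagonist efficacy given as maximal inhibition relative to that of the reference anti-estrogen ICI 164,384.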
On the technique in general: A reporter such as luciferase makes a cellular process visible.

Another series has as its system MCF-7H cells. The series can be described thus: 7-day in vitro proliferation assay in tamoxifen-resistant MCF-7H breast cancer cells (methyl-3H-thymidine incorporation). In kind it is cell-based, human. The settings on record: Homo sapiens, MCF7, 168 h; efficacy (fraction of maximal response relative to E2) in MCF-7H proliferation; read-out: MCF7 ia. The protocol:
To what extent compounds are capable of stimulating proliferation in ER-positive, tamoxifen-resistant breast cancer cells is tested in a 7-day in vitro proliferation assay using MCF-7H cells. More specifically, this in vitro bioassay is used to determine the efficacy (fraction of maximal response), pEC50, and relative potency of the compound to induce proliferation by comparing the data for this compound with those of the reference compound 17β-estradiol (E2) in the same test.
A more detailed description of the method used is as follows.
Cell culture: The human epithelial breast cancer cell line MCF-7H (origin: Hubrecht Laboratory, Utrecht, The Netherlands) was routinely maintained in complete medium which is a 1:1 mixture of Ham's F12 medium and Dulbecco's Modified Eagle Medium (DMEM; Invitrogen, Carlsbad, USA) without phenol red and enriched with 5% fetal calf serum (FCS; Hyclone, Utah, USA), 100 μg/ml streptomycin and 100 units/ml penicillin adapted to contain:
Cells were grown in 80 cm^2 culture flasks (Nunc, Roskilde, Denmark) and kept in an atmosphere of 5% CO2-95% air at 37 degrees Celsius. Cells were subcultured when they reached about 80-90% confluence, resulting in one passage a week. Subculturing includes detaching the cells using trypsin/EDTA and diluting the cell suspension 10 times.
Methyl-^3H-thymidine incorporation assay: MCF-7H cells were starved overnight in assay medium containing 5% charcoal-treated (CT) bovine calf serum (BCS; Hyclone) instead of FCS and a final concentration of 1.0 μg/ml bovine insulin, the day before plating. Cells were plated in assay medium containing 5% CT BCS, in white 24-wells plates (Perkin Elmer, Shelton, USA), at a density of 7.5×10^3 cells per well, each well containing 630 μL assay medium. Cells were allowed to attach and spread for 24 h before stimulation with reference and/or test compound(s). After a stimulation period of 7 days, 0.25 μCi/well of methyl-^3H-thymidine (GE Healthcare Limited, Buckinghamshire, UK) was added per well. Cultures were maintained in an atmosphere of 5% CO2-95% air at 37 degrees Celsius. After overnight incubation, excess methyl-^3H-thymidine was aspirated and the cells were washed with phosphate-buffered saline (PBS). After 1 h of incubation with 1 ml scintillation fluid Microscint-20 (Perkin Elmer), radioactivity was measured in a Packard TOP-count NXT microplate scintillation counter (Perkin Elmer).
(Incorporation of labelled thymidine or its analogues reports DNA synthesis.)

A further series has as its target T2, estrogen receptor alpha (Homo sapiens, UniProt P03372).
T2 construct: endogenous in cells; host or cells: T47D human breast cancer cells (ATCC)
T2 sequence (P03372 1-595): T1 sequence (P03372 1-595)
The series can be described thus: ERα downregulation assay in T47D breast cancer cells (ERα ELISA). In kind it is cell-based. The settings on record: downregulation of ERα relative to fulvestrant (100%), 1E-5 M, 24 hours, negative = upregulation. In short, it runs like this: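 T47D cells were treated with 1E-5 M test compound for 24 hours, then lysed in the well. ERα protein content was measured by ELISA. Efficacy is given as fraction of maximal response relative to fulvestrant, defined as 100% downregulation.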
Background: In an ELISA, binding on a coated surface is turned into a signal by an enzyme label.

A short description of series [2]: Rapid Rat PK after oral administration. The settings on record: 20 umol/kg, plasma, oral 20 μmol/kg; for AUC: AUC(0-6h), read-out: RRat AUC; for Cmax: read-out: RRat Cmax. In kind it is in vivo, rats (Rattus Norvegicus). The protocol: In the context of the present invention with “orally bioavailable” is meant that compounds, when dosed orally to a rat show oral exposure as determined by quantification of compound plasma levels in that rat. Typically, compounds are dosed orally at 20 μmol/kg, as described in Example 14 hereinbelow. Oral exposure is determined by measuring plasma levels over the time range of 0-6 h after dosing and is expressed by AUC(0-6h).
This test was used to determine the pharmacokinetic parameters (AUC(0-6h), Cmax and Tmax) after oral administration of compounds in male (intact or castrated) or female (intact or ovariectomized) rats (Rattus Norvegicus).
After oral administration of a compound at 20 μmol/kg, blood was collected at various time points (0.5, 1, 2, 3, 4 and 6 hours after compound administration) via the tail vein. Plasma samples were pooled per time point, after which the concentration was determined in plasma by means of LC-MS. Pharmacokinetic parameters (AUC(0-6h), Cmax and Tmax) were derived from the obtained concentration versus time curves using the non-compartmental analysis module in Animals! or WinNonlin.

Take `CCCN1CC(Oc2ccc(C(=C(CC)c3ccccc3)c3ccccc3)cc2)C1.O=C(O)C(F)(F)F` [compound 6u, 3-(4-(1,2-diphenylbut-1-enyl)phenoxy)-1-propylazetidine 2,2,2-trifluoroacetate]: in series [1], the IC50 is 31.6 nM. In addition, in the series on MCF-7H cells, the Emax was 8%. Besides, the “DR (%)” value at estrogen receptor alpha is given as 75%. Also, in series [2], the AUC amounted to 1.97 µM·h and the Cmax was 450 nM.
With `Cl.Oc1ccc(-c2onc(-c3ccccc3Cl)c2-c2ccc(OC3CN(CCCF)C3)cc2)cc1` [compound 7aa, 4-(3-(2-chlorophenyl)-4-(4-(1-(3-fluoropropyl)azetidin-3-yloxy)phenyl)isoxazol-5-yl)phenol hydrochloride], in series [1], the IC50 was 1 nM. For the same compound, at estrogen receptor alpha, the “DR (%)” value is on record as 93%. Moreover, in series [2], the AUC is 3.58 µM·h and the Cmax turned out to be 990 nM.
Take `Cl.Oc1ccc(-c2onc(-c3ccccc3Cl)c2-c2ccc(OC3CN(CC4CCC4)C3)cc2)cc1` [compound 7z, 4-(3-(2-chlorophenyl)-4-(4-(1-(cyclobutylmethyl)azetidin-3-yloxy)phenyl)-isoxazol-5-yl)phenol hydrochloride]: in series [1], the IC50 was 0.398 nM. In addition, on estrogen receptor alpha, the “DR (%)” value is recorded as 58%. Besides, in series [2], the AUC was 1.03 µM·h and the Cmax amounted to 350 nM.
`CCCN1CC(Oc2ccc(-c3c(-c4ccccc4Cl)noc3-c3ccc(O)cc3)cc2)C1` [compound 6g, 4-(4-(4-(N-propylazetidin-3-yloxy)phenyl)-3-(2-chlorophenyl)isoxazol-5-yl)-phenol]: the IC50 in series [1] was 0.251 nM. In addition, the Emax in the series with MCF-7H cells came out at 2%. Also, the “DR (%)” value on estrogen receptor alpha is 57%. For the same compound, in series [2], the area under the curve (AUC) amounted to 2.05 µM·h and the Cmax turned out to be 570 nM.
Consider `CCCN1CC(Oc2ccc(C(O)c3c(-c4ccccc4Cl)noc3-c3ccc(O)cc3)cc2)C1` (centres unmarked) [compound 7av, 4-(3-(2-chlorophenyl)-4-(hydroxy(4-(1-propylazetidin-3-yloxy)phenyl)methyl)isoxazol-5-yl)phenol], for which the IC50 in series [1] is 25.1 nM. In addition, the “DR (%)” value at estrogen receptor alpha is recorded as 84%. Besides, in series [2], the AUC came out at 3.8 µM·h and the Cmax worked out at 990 nM.
For `CCCN1CC(Oc2ccc(C(=C(CC)c3ccccc3)c3cccc(O)c3)cc2)C1` (mixture of isomers) [compound 6w, (E/Z)-3-(2-phenyl-1-(4-(1-propylazetidin-3-yloxy)phenyl)but-1-enyl)phenol], in that order: 5.01 nM, 63%, 1.07 µM·h and 230 nM.
